Key:
Assay type in all cases: physicochemical
[1] = Long-term storage stability 1 year room temperature, Example 7 emulsifiable concentrate (triethanolamine + DBSCa); conditions: Example 7 formulation; 1 year @ room temp
Procedure: In this example, an emulsifiable concentrate of fenoxaprop p-ethyl, mefenpyr diethyl, pyrasulfotole and bromoxynil mixed esters was prepared. Triethanolamine, a buffer that is capable of hydrogen bonding, was selected as the buffer. Dodecylbenzenesulfontate calcium, also known as DBSCa was also used to provide a calcium cation for the complex. The mixture of Table 13 was prepared by mixing the liquid ingredients, then the solid ingredients at 50° C.
The mixture was tested for long-term storage stability by subjecting separate samples to room temperatures for 1 year.

[2] = Long-term storage stability, Comparative Example 5 emulsifiable concentrate with bromoxynil mixed esters (triethylamine buffer); conditions: Comparative Example 5 formulation
Procedure: An emulsifiable concentrate of fenoxaprop p-ethyl, mefenpyr diethyl, pyrasulfotole and bromoxynil mixed esters was prepared. Triethylamine, a buffer that is not capable of complexing was selected as the buffer. The mixture of Table 9 was prepared by mixing the liquid ingredients, then the solid ingredients at 50° C.
(§1) The mixture was tested for long-term storage stability by subjecting separate samples to different temperatures for eight weeks.

[3] = Long-term storage stability, Example 4 emulsifiable concentrate with bromoxynil mixed esters (triethanolamine buffer); conditions: Example 4 formulation
Procedure: Triethanolamine, a buffer capable of complexing was selected as the buffer. The mixture of Table 7 was prepared by mixing the liquid ingredients, then the solid ingredients at 50° C.
as §1

[4] = Long-term storage stability, Comparative Example 2 mixture (no buffer); conditions: Comparative Example 2 formulation
Procedure: A mixture of fenoxaprop p-ethyl, mefenpyr diethyl, pyrasulfotole, and fillers was prepared in similar manner as in Table 1 but without a buffer system of the invention (see Table 3).
as §1

[5] = Long-term storage stability, Comparative Example 6 mixture with bromoxynil mixed esters (no buffer); conditions: Comparative Example 6 formulation
Procedure: as §1

[6] = Long-term storage stability, Comparative Example 1 emulsifiable concentrate (triethanolamine buffer); conditions: Comparative Example 1 formulation
Procedure: An emulsifiable concentrate of fenoxaprop-ethyl, mefenpyr diethyl, and pyrasulfotole and fillers was prepared. Triethanolamine, a buffer capable of hydrogen bonding, was selected as the buffer. The mixture of Table 1 was prepared by mixing the liquid ingredients, then the solid ingredients at 50° C.
as §1

[7] = Long-term storage stability, Comparative Example 3 emulsifiable concentrate (triethylamine buffer); conditions: Comparative Example 3 formulation
Procedure: An emulsifiable concentrate of fenoxaprop p-ethyl, mefenpyr diethyl, and pyrasulfotole was prepared. Triethylamine, a buffer that is not capable of complexing or forming a coordination complex or hydrogen bonding, was selected as the buffer. The mixture of Table 5 was prepared by mixing the liquid ingredients, then the solid ingredients at 50° C.
as §1

[8] = Long-term storage stability, Example 8 mixture (triethanolamine, without DBSCa); conditions: Example 8 formulation
Procedure: as §1

[9] = 8 weeks @ 40° C., listed as pyrasulfotole

SMILES: CCCCCCC(=O)Oc1c(Br)cc(C#N)cc1Br [Bromoxynil Heptanoate Esters, bromoxynil heptanoate]
- Avg. Wt % active ingredient [1]: 12.47 Wt %
- Change from expected [1]: −3.03%

SMILES: CCCCCCCC(=O)Oc1c(Br)cc(C#N)cc1Br [Bromoxynil Octanoate, bromoxynil octanoate]
- Avg. Wt % active ingredient ([2]; 8 weeks @ 0° C.): 5.67 Wt %
- Avg. Wt % active ingredient ([2]; 8 weeks @ 40° C.): 5.02 Wt %
- change from 0° C. ([2]; 8 weeks @ 40° C.): −11.52%
- Avg. Wt % active ingredient ([2]; 8 weeks @ room temp.): 5.65 Wt %
- change from 0° C. ([2]; 8 weeks @ room temp.): −0.41%
- Avg. Wt % active ingredient [1]: 13.08 Wt %
- Change from expected [1]: −3.083%

SMILES: CCOC(=O)[C@@H](C)Oc1ccc(Oc2nc3ccc(Cl)cc3o2)cc1 [Fenoxaprop p-ethyl, fenoxaprop p-ethyl]
- Avg. Wt % active ingredient ([3]; 8 weeks @ 0° C.): 4.32 Wt %
- Avg. Wt % active ingredient ([3]; 8 weeks @ 40° C.): 3.96 Wt %
- change from 0° C. ([3]; 8 weeks @ 40° C.): −8.25%
- Avg. Wt % active ingredient ([2]; 8 weeks @ 0° C.): 4.30 Wt %
- Avg. Wt % active ingredient ([2]; 8 weeks @ 40° C.): 4.33 Wt %
- change from 0° C. ([2]; 8 weeks @ 40° C.): 0.68%
- Avg. Wt % active ingredient ([2]; 8 weeks @ room temp.): 4.33 Wt %
- change from 0° C. ([2]; 8 weeks @ room temp.): 0.07%
- Avg. Wt % active ingredient ([4]; 8 weeks @ 0° C.): 8.20 Wt %
- Avg. Wt % active ingredient ([4]; 8 weeks @ 40° C.): 2.64 Wt %
- change from 0° C. ([4]; 8 weeks @ 40° C.): −67.80%
- Avg. Wt % active ingredient ([4]; 8 weeks @ 50° C.): 0.91 Wt %
- change from 0° C. ([4]; 8 weeks @ 50° C.): −88.90%
- Avg. Wt % active ingredient ([4]; 8 weeks @ room temp.): 6.49 Wt %
- change from 0° C. ([4]; 8 weeks @ room temp.): −20.85%
- Avg. Wt % active ingredient ([5]; 8 weeks @ 0° C.): 6.97 Wt %
- Avg. Wt % active ingredient ([5]; 8 weeks @ 40° C.): 2.34 Wt %
- change from 0° C. ([5]; 8 weeks @ 40° C.): −66.43%
- Avg. Wt % active ingredient ([5]; 8 weeks @ room temp.): 6.15 Wt %
- change from 0° C. ([5]; 8 weeks @ room temp.): −11.76%
- Avg. Wt % active ingredient ([6]; 8 weeks @ 0° C.): 9.41 Wt %
- Avg. Wt % active ingredient ([6]; 8 weeks @ 40° C.): 9.00 Wt %
- change from 0° C. ([6]; 8 weeks @ 40° C.): −4.31%
- Avg. Wt % active ingredient ([6]; 8 weeks @ 50° C.): 8.58 Wt %
- change from 0° C. ([6]; 8 weeks @ 50° C.): −8.83%
- Avg. Wt % active ingredient ([6]; 8 weeks @ room temp.): 9.34 Wt %
- change from 0° C. ([6]; 8 weeks @ room temp.): −0.69%
- Avg. Wt % active ingredient ([7]; 8 weeks @ 0° C.): 2.93 Wt %
- Avg. Wt % active ingredient ([7]; 8 weeks @ 40° C.): 2.80 Wt %
- change from 0° C. ([7]; 8 weeks @ 40° C.): −4.37%
- Avg. Wt % active ingredient ([7]; 8 weeks @ 50° C.): 2.74 Wt %
- change from 0° C. ([7]; 8 weeks @ 50° C.): −6.39%
- Avg. Wt % active ingredient ([7]; 8 weeks @ room temp.): 2.89 Wt %
- change from 0° C. ([7]; 8 weeks @ room temp.): −1.19%
- Avg. Wt % active ingredient ([8]; 8 weeks @ 0° C.): 4.33 Wt %
- Avg. Wt % active ingredient ([8]; 8 weeks @ 40° C.): 4.00 Wt %
- change from 0° C. ([8]; 8 weeks @ 40° C.): −5.75%
- Avg. Wt % active ingredient [1]: 7.95 Wt %
- Change from expected [1]: −0.625%

SMILES: CCOC(=O)C1=NN(c2ccc(Cl)cc2Cl)C(C)(C(=O)OCC)C1 (stereo not drawn) [Mefenpyr diethyl, mefenpyr diethyl]
- Avg. Wt % active ingredient ([3]; 8 weeks @ 0° C.): 1.82 Wt %
- Avg. Wt % active ingredient ([3]; 8 weeks @ 40° C.): 1.80 Wt %
- change from 0° C. ([3]; 8 weeks @ 40° C.): −0.92%
- Avg. Wt % active ingredient ([2]; 8 weeks @ 0° C.): 1.73 Wt %
- Avg. Wt % active ingredient ([2]; 8 weeks @ 40° C.): 1.75 Wt %
- change from 0° C. ([2]; 8 weeks @ 40° C.): 0.88%
- Avg. Wt % active ingredient ([2]; 8 weeks @ room temp.): 1.75 Wt %
- change from 0° C. ([2]; 8 weeks @ room temp.): 0.77%
- Avg. Wt % active ingredient ([4]; 8 weeks @ 0° C.): 3.81 Wt %
- Avg. Wt % active ingredient ([4]; 8 weeks @ 40° C.): 3.85 Wt %
- change from 0° C. ([4]; 8 weeks @ 40° C.): −1.05%
- Avg. Wt % active ingredient ([4]; 8 weeks @ 50° C.): 3.97 Wt %
- change from 0° C. ([4]; 8 weeks @ 50° C.): −4.20%
- Avg. Wt % active ingredient ([4]; 8 weeks @ room temp.): 4.01 Wt %
- change from 0° C. ([4]; 8 weeks @ room temp.): +5.24%
- Avg. Wt % active ingredient ([5]; 8 weeks @ 0° C.): 2.98 Wt %
- Avg. Wt % active ingredient ([5]; 8 weeks @ 40° C.): 3.01 Wt %
- change from 0° C. ([5]; 8 weeks @ 40° C.): 1.01%
- Avg. Wt % active ingredient ([5]; 8 weeks @ room temp.): 3.00 Wt %
- change from 0° C. ([5]; 8 weeks @ room temp.): 0.67%
- Avg. Wt % active ingredient ([6]; 8 weeks @ 0° C.): 3.77 Wt %
- Avg. Wt % active ingredient ([6]; 8 weeks @ 40° C.): 3.74 Wt %
- change from 0° C. ([6]; 8 weeks @ 40° C.): −0.65%
- Avg. Wt % active ingredient ([6]; 8 weeks @ 50° C.): 3.72 Wt %
- change from 0° C. ([6]; 8 weeks @ 50° C.): −1.17%
- Avg. Wt % active ingredient ([6]; 8 weeks @ room temp.): 3.76 Wt %
- change from 0° C. ([6]; 8 weeks @ room temp.): −0.17%
- Avg. Wt % active ingredient ([7]; 8 weeks @ 0° C.): 3.80 Wt %
- Avg. Wt % active ingredient ([7]; 8 weeks @ 40° C.): 3.72 Wt %
- change from 0° C. ([7]; 8 weeks @ 40° C.): −2.10%
- Avg. Wt % active ingredient ([7]; 8 weeks @ 50° C.): 3.73 Wt %
- change from 0° C. ([7]; 8 weeks @ 50° C.): −1.93%
- Avg. Wt % active ingredient ([7]; 8 weeks @ room temp.): 3.77 Wt %
- change from 0° C. ([7]; 8 weeks @ room temp.): −0.87%
- Avg. Wt % active ingredient ([8]; 8 weeks @ 0° C.): 1.74 Wt %
- Avg. Wt % active ingredient ([8]; 8 weeks @ 40° C.): 1.72 Wt %
- change from 0° C. ([8]; 8 weeks @ 40° C.): −1.29%

SMILES: Cc1nn(C)c(O)c1C(=O)c1ccc(C(F)(F)F)cc1S(C)(=O)=O [Pyrasulfotole, pyrasulfotole]
- Avg. Wt % active ingredient ([3]; 8 weeks @ 0° C.): 1.42 Wt %
- Avg. Wt % active ingredient ([3]; 8 weeks @ 40° C.): 1.40 Wt %
- change from 0° C. ([3]; 8 weeks @ 40° C.): −1.30%
- change from 0° C. [3, 9]: −1.30%
- Avg. Wt % active ingredient ([2]; 8 weeks @ 0° C.): 1.38 Wt %
- Avg. Wt % active ingredient ([2]; 8 weeks @ 40° C.): 1.26 Wt %
- change from 0° C. ([2]; 8 weeks @ 40° C.): −9.04%
- change from 0° C. [2, 9]: −9.04%
- Avg. Wt % active ingredient ([2]; 8 weeks @ room temp.): 1.30 Wt %
- change from 0° C. ([2]; 8 weeks @ room temp.): −5.80%
- Avg. Wt % active ingredient ([4]; 8 weeks @ 0° C.): 4.76 Wt %
- Avg. Wt % active ingredient ([4]; 8 weeks @ 40° C.): 4.69 Wt %
- change from 0° C. ([4]; 8 weeks @ 40° C.): −1.47%
- Avg. Wt % active ingredient ([4]; 8 weeks @ 50° C.): 4.54 Wt %
- change from 0° C. ([4]; 8 weeks @ 50° C.): −4.62%
- Avg. Wt % active ingredient ([4]; 8 weeks @ room temp.): 4.75 Wt %
- change from 0° C. ([4]; 8 weeks @ room temp.): −0.21%
- Avg. Wt % active ingredient ([5]; 8 weeks @ 0° C.): 3.26 Wt %
- Avg. Wt % active ingredient ([5]; 8 weeks @ 40° C.): 2.81 Wt %
- change from 0° C. ([5]; 8 weeks @ 40° C.): −13.8%
- Avg. Wt % active ingredient ([5]; 8 weeks @ room temp.): 3.01 Wt %
- change from 0° C. ([5]; 8 weeks @ room temp.): −7.67%
- Avg. Wt % active ingredient ([6]; 8 weeks @ 0° C.): 5.57 Wt %
- Avg. Wt % active ingredient ([6]; 8 weeks @ 40° C.): 5.53 Wt %
- change from 0° C. ([6]; 8 weeks @ 40° C.): −0.82%
- Avg. Wt % active ingredient ([6]; 8 weeks @ 50° C.): 5.51 Wt %
- change from 0° C. ([6]; 8 weeks @ 50° C.): −1.12%
- Avg. Wt % active ingredient ([6]; 8 weeks @ room temp.): 5.67 Wt %
- change from 0° C. ([6]; 8 weeks @ room temp.): 1.71%
- Avg. Wt % active ingredient ([7]; 8 weeks @ 0° C.): 5.38 Wt %
- Avg. Wt % active ingredient ([7]; 8 weeks @ 40° C.): 5.43 Wt %
- change from 0° C. ([7]; 8 weeks @ 40° C.): 0.85%
- Avg. Wt % active ingredient ([7]; 8 weeks @ 50° C.): 5.60 Wt %
- change from 0° C. ([7]; 8 weeks @ 50° C.): 4.07%
- Avg. Wt % active ingredient ([7]; 8 weeks @ room temp.): 5.46 Wt %
- change from 0° C. ([7]; 8 weeks @ room temp.): 1.51%
- Avg. Wt % active ingredient ([8]; 8 weeks @ 0° C.): 1.74 Wt %
- Avg. Wt % active ingredient ([8]; 8 weeks @ 40° C.): 1.65 Wt %
- change from 0° C. ([8]; 8 weeks @ 40° C.): −4.81%
- Avg. Wt % active ingredient [1]: 3.14 Wt %
- Change from expected [1]: −3.083%
